Measured values: patent US11439615B2, “Lipoxin and lipoxin analogue mediated neuroprotection and treatments” (University Health Network, priority 2017, dated 2022)

Test system: retinal ganglion cell neurons (RGCs)
Assay: Rat chronic IOP (circumlimbal suture) glaucoma model
Format: in vivo
Description: A method for reliably inducing sustained IOPs in the rodent eye was recently developed by Liu et al (55, 56). In this minimally invasive approach, a circumlimbal suture is placed to induce chronic ocular hypertension. An advantage of this strategy is that specific IOPs can be targeted and monitored by rebound tonometry, improving the consistency of results. In addition, following suturing elevated IOPs can be maintained for as long as 15 weeks (55). The model reproduces key features of glaucoma, such as; progressive and preferential decline in RGC function starting by week 8, gradual loss of the retinal nerve fiber layer (RNFL) by week 12, and RGC death by week 15, with minimal overt inflammation (55, 57). In the experiments, circumlimbal sutures were placed in the randomized right or left eyes of anesthetized rats using a sterile 8-0 nylon suture. IOP was measured twice a week, and only animals showing sustained elevated IOP over 21 mmHg for the duration of the experiment were included in the analyses. The delivery and dosage of LXB4 was based on previous publications (58-60). Briefly, LXB4 or vehicle were administered starting from week 8 on alternate days. Due to the unstable nature of lipoxins, a hybrid approach was taken to ensure consistent delivery, including both IP delivery (1 μg) and topically to each eye (100 ng). ERG was measured monthly to assess RGC functional changes using the positive scotopic threshold response (pSTR), which has been used to measure the impact of elevated chronic IOP in rats (55, 61). In addition, RNFL and total retinal thickness were quantified once a month using optical coherence tomography (OCT). After 15 weeks, animals were euthanized and RGC numbers were counted on middle and peripheral quadrants of retinal flatmounts following immunofluorescent staining for the RGC marker BRN3a as above.
Therapeutic LXB4 treatment rescues RGC function in a chronic IOP dependent glaucoma model. To assess whether LXB4 action extends beyond acute stress models, it was investigated if it provides RGC protection in a chronic model more relevant to human neurodegenerative disease. For this purpose a recently described rat perilimbal suture model of glaucoma was used, in which moderately elevated intraocular pressure (IOP) can be consistently maintained over 15 weeks (55, 57). Elevated IOP is the primary clinical glaucoma risk factor, and this model results in similar compromised RGC function, reduced nerve fiber layer (NFL) thickness, and death of RGCs by week 15 (55). […] Therefore, this time point was chosen to initiate an experiment in which therapeutic treatment with LXB4 or vehicle was administered to sutured rats starting at week 8, with longitudinal and pathological assessment of RGC function and survival (FIG. 6A).
LXB4 or vehicle treatment of sutured rats was initiated after 8 weeks of elevated IOP, and was delivered on alternate days until week 15. A control group was treated with vehicle only. Additionally, for each rat increased IOP was induced in the unilaterally, with the contralateral eye serving as control. IOP was monitored twice weekly throughout the experiment. As functional and structural endpoints, electroretinograms (ERG) and optical coherence tomography (OCT) were measured at week 0 (before placing the suture), and on weeks 4, 8, and 12, and 15 of elevated IOP.
In vehicle eyes there were 35% and 30% fewer BRN3a positive RGCs in sutured eyes compared to contralateral controls in the […], respectively (FIG. 7A-FIG. 7B).

## CCCCC[C@H](O)[C@H](O)/C=C/C=C/C=C\C=C\[C@@H](O)CCCC(=O)O [LXB4, 5S,14R,15S-trihydroxy-6E,8Z,10E,12E-eicosatetraenoic acid]
IP 1 μg and topical 100 ng on alternate days from week 8 to 15, by week 12, vs vehicle
  RGC function, positive scotopic threshold response (pSTR, ERG): significant recovery
Measured twice weekly throughout
  IOP levels compared to vehicle treated group: did not differ
Treatment week 8 to 15
  a-wave (photoreceptor) and b-wave (bipolar cell) ERG signals: no LXB4 effects
  total retinal thickness (OCT): not affected
Treatment week 8 to 15, by week 15, vs vehicle
  RNFL thickness loss (OCT): partially rescued
Week 15, vs vehicle
  BRN3a positive RGCs on retinal flatmounts, inner and outer retina: significant rescue of RGCs
